Measurements from patent US7772241B2, “Variolin derivatives and their use as antitumor agents” (Pharma Mar S.A., priority 2001, dated 2010).
Like-named read-outs stand apart in the source and are kept apart here.

Assays:
K-562 = test: Inhibition of cells growth by colorimetric (SRB) assay, K-562; conditions: SRB assay, 48 hours exposure
Summary of the method: (§1)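 Human tumour cells seeded at 5×10^3/well in RPMI 1640 10% FBS, attached 18 h, then exposed 48 h to samples at 10 to 10^−8 μg/ml in DMSO/EtOH/PBS (0.5:0.5:99). Growth read by SRB staining after TCA fixation, OD 490 nm, triplicate wells; GI, TGI and LC derived.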

A-549 = test: Inhibition of cells growth by colorimetric (SRB) assay, A-549
Summary of the method: as §1

SK-MEL-28 = test: Inhibition of cells growth by colorimetric (SRB) assay, SK-MEL-28; conditions: SRB assay, 48 hours exposure
Summary of the method: as §1

HT-29 = test: Inhibition of cells growth by colorimetric (SRB) assay, HT-29
Summary of the method: as §1

LoVo = test: Inhibition of cells growth by colorimetric (SRB) assay, LoVo; conditions: SRB assay, 48 hours exposure
Summary of the method: as §1

LoVo-Dox = test: Inhibition of cells growth by colorimetric (SRB) assay, LoVo-Dox; conditions: SRB assay, 48 hours exposure
Summary of the method: as §1

DU-145 = test: Inhibition of cells growth by colorimetric (SRB) assay, DU-145; conditions: SRB assay, 48 hours exposure
Summary of the method: as §1

LNCaP = test: Inhibition of cells growth by colorimetric (SRB) assay, LNCaP; conditions: SRB assay, 48 hours exposure
Summary of the method: as §1

SK-BR-3 = test: Inhibition of cells growth by colorimetric (SRB) assay, SK-BR-3; conditions: SRB assay, 48 hours exposure
Summary of the method: as §1

IGROV-1 = test: Inhibition of cells growth by colorimetric (SRB) assay, IGROV-1; conditions: SRB assay, 48 hours exposure
Summary of the method: as §1

IGROV-ET = test: Inhibition of cells growth by colorimetric (SRB) assay, IGROV-ET; conditions: SRB assay, 48 hours exposure
Summary of the method: as §1

HeLa = test: Inhibition of cells growth by colorimetric (SRB) assay, HeLa; conditions: SRB assay, 48 hours exposure
Summary of the method: as §1

HeLa-APL = test: Inhibition of cells growth by colorimetric (SRB) assay, HeLa-APL; conditions: SRB assay, 48 hours exposure
Summary of the method: as §1

PANC-1 = test: Inhibition of cells growth by colorimetric (SRB) assay, PANC-1; conditions: SRB assay, 48 hours exposure
Summary of the method: as §1

[1] = Inhibition of cells growth by colorimetric (SRB) assay, HMEC1; conditions: human, HMEC1 cells, LC50 H-MEC-1, SRB assay, 48 hours exposure
HMEC1 = test: as above

In the case of CSc1nccc(-c2c3c(O)ccnc3n3c(N)nccc23)n1 [Compound 95], the “K-562 TGI” value (K-562) is reported as 3.08E−05, the GI50 (K-562; read-out: K-562 GI50) is reported as at least 30.8 µM and the CC50 (K-562; read-out: K-562 LC50) is reported as at least 30.8 µM. For the same molecule, the GI50 (A-549; Homo sapiens, A549, 48 h, read-out: GI50 A-549, SRB assay, 48 hours exposure) was at least 30.8 µM, the CC50 (A-549; Homo sapiens, A549, 48 h, read-out: LC50 A-549, SRB assay, 48 hours exposure) was at least 30.8 µM and the “A-549 TGI” value (A-549; SRB assay, 48 hours exposure) was 3.08E−05. The “TGI A-549” value (A-549; SRB assay, 48 hours exposure) was 3.08E−05, the GI50 (A-549; read-out: A-549 GI50, SRB assay, 48 hours exposure) was 8.63 µM and the CC50 (A-549; read-out: A-549 LC50, SRB assay, 48 hours exposure) was at least 30.8 µM. For the same molecule, the “MEL-28 TGI” value (SK-MEL-28) was 3.08E−05, the GI50 (SK-MEL-28; read-out: MEL-28 GI50) was at least 30.8 µM and the CC50 (SK-MEL-28; read-out: MEL-28 LC50) was at least 30.8 µM. The GI50 (HT-29; Homo sapiens, HT-29, 48 h, read-out: GI50 HT-29, SRB assay, 48 hours exposure) was at least 30.8 µM, the CC50 (HT-29; Homo sapiens, HT-29, 48 h, read-out: LC50 HT-29, SRB assay, 48 hours exposure) was at least 30.8 µM and the “HT-29 TGI” value (HT-29; SRB assay, 48 hours exposure) was 3.08E−05. For the same molecule, the “TGI HT-29” value (HT-29; SRB assay, 48 hours exposure) was 3.08E−05, the GI50 (HT-29; read-out: HT-29 GI50, SRB assay, 48 hours exposure) was at least 30.8 µM and the CC50 (HT-29; read-out: HT-29 LC50, SRB assay, 48 hours exposure) was at least 30.8 µM. The “LOVO TGI” value (LoVo) was 3.08E−05, the GI50 (LoVo; read-out: LOVO GI50) was 11.3 µM and the CC50 (LoVo; read-out: LOVO LC50) was at least 30.8 µM. The “LOVO-DOX TGI” value (LoVo-Dox) was 3.08E−05, the GI50 (LoVo-Dox; read-out: LOVO-DOX GI50) was at least 30.8 µM and the CC50 (LoVo-Dox; read-out: LOVO-DOX LC50) was at least 30.8 µM. The “DU-145 TGI” value (DU-145) was 3.08E−05, the GI50 (DU-145; read-out: DU-145 GI50) was 10.2 µM and the CC50 (DU-145; read-out: DU-145 LC50) was at least 30.8 µM. The “LN-caP TGI” value (LNCaP) was 3.08E−05, the GI50 (LNCaP; read-out: LN-caP GI50) was 4.1 µM and the CC50 (LNCaP; read-out: LN-caP LC50) was at least 30.8 µM. The “SK-BR-3 TGI” value (SK-BR-3) was 3.08E−05, the GI50 (SK-BR-3; read-out: SK-BR-3 GI50) was 1.52 µM and the CC50 (SK-BR-3; read-out: SK-BR-3 LC50) was at least 30.8 µM. The “IGROV TGI” value (IGROV-1) was 3.08E−05, the GI50 (IGROV-1; read-out: IGROV GI50) was at least 30.8 µM and the CC50 (IGROV-1; read-out: IGROV LC50) was at least 30.8 µM. The “IGROV-ET TGI” value (IGROV-ET) was 3.08E−05, the GI50 (IGROV-ET; read-out: IGROV-ET GI50) was 3.95 µM and the CC50 (IGROV-ET; read-out: IGROV-ET LC50) was at least 30.8 µM. The “HELA TGI” value (HeLa) was 2.57E−08, the GI50 (HeLa; read-out: HELA GI50) was 0.00916 µM and the “HELA-APL TGI” value (HeLa-APL) was 1.31E−08. For the same molecule, the GI50 (HeLa-APL; read-out: HELA-APL GI50) was 0.00546 µM, the CC50 (HeLa-APL; read-out: HELA-APL LC50) was 0.0382 µM and the “PANC-1 TGI” value (PANC-1) was 3.08E−05. It also gave a GI50 (PANC-1; read-out: PANC-1 GI50) of 24.2 µM, a CC50 (PANC-1; read-out: PANC-1 LC50) of at least 30.8 µM and a CC50 at 48 h [1] of at least 30.8 µM. The GI50 (HMEC1; Homo sapiens, HMEC-1, 48 h, read-out: GI50 H-MEC-1, SRB assay, 48 hours exposure) was at least 30.8 µM and the “TGI H-MEC-1” value (HMEC1; SRB assay, 48 hours exposure, in M (unit assumed)) was 3.08E−05.
